Measurements reported in patent US20140105879A1, “FLOUR-BASED FUNCTIONAL FOOD” (priority 2011, published 2014).

Tested on: HMG-CoA reductase
Test: action on the enzyme HMG-CoA reductase (further experimental data)
From the text: Therefore, the functional bread to which vegetable extracts have been added according to the present invention is capable of exerting a functional, salutary action in prevention and treatment of cholesterol and triglyceride levels exceeding the reference values, in addition to an action of protecting the arteries and the cardio-circulatory system and a hepatoprotective and antioxidant action, thanks to the synergistic biochemical actions of the phytocomplexes included in the bread, which enable an enhanced bioactivity thereof to be obtained in the resulting product.

action on the enzyme HMG-CoA reductase: reducing the quantity thereof
SMILES: CCCCCCCCCCCCCCCCCCCCCCCCCCCCO [octacosanol]
